Experimental data: article PMC11508362, “Discovery of Novel Thiazole-Based SIRT2 Inhibitors as Anticancer Agents: Molecular Modeling, Chemical Synthesis and Biological Assays” (International Journal of Molecular Sciences, 2024)
Read-outs that look alike come from different tables or passages of the source. Blank lines part the entries; values can stand above or below the compound they belong to.

Key:
[1] = tested on: acetylation of α-tubulin in SCC13 cells; assay: Western blot of α-tubulin acetylation (endogenous SIRT2 inhibition) in SCC13 cells; format: cell-based; conditions: 5 μM, 48 h, Western blot normalized to total α-tubulin
Description: To confirm that the effect of 5a on cell viability was due to its ability to inhibit the endogenous SIRT2, Western blot analyses were performed to quantify the level of acetylation of α-tubulin, a direct substrate of SIRT2 enzymatic activity.
SCC13 cells (3 × 10^5) were seeded in 60 mm Petri dishes and left to adhere overnight. The day after, the medium was replaced with a medium containing 5a at a final concentration of 5 µM or the respective amount of DMSO vehicle. After 48 h, the medium was removed, and cells were washed with PBS and lysed by scraping with 100 µL of lysis buffer (25 mM Tris-HCl, pH 7.8; 2 mM DTT; 2 mM EDTA, 10% glycerol; 1% Triton® X-100). The lysate was clarified by centrifugation, and the protein concentration was measured using the Bradford assay. Twenty µg of proteins were loaded on a 10% polyacrylamide gel and then transferred to a nitrocellulose membrane. The membrane was saturated with 5% skim milk powder solution in TBS-Tween 0.05%. To determine the acetylation of alpha-tubulin, membranes were incubated with an anti-acetyl-alpha-tubulin antibody (#5335, Cell Signaling Technology, Danvers, MA, USA), whose signal was normalized on the total amount of alpha-tubulin (#2125, Cell Signaling Technology).

SIRT2 [2] = target: T1, SIRT2 (Homo sapiens, UniProt Q8IXJ6); conditions: cited from earlier work
T1 sequence (Q8IXJ6 1-389): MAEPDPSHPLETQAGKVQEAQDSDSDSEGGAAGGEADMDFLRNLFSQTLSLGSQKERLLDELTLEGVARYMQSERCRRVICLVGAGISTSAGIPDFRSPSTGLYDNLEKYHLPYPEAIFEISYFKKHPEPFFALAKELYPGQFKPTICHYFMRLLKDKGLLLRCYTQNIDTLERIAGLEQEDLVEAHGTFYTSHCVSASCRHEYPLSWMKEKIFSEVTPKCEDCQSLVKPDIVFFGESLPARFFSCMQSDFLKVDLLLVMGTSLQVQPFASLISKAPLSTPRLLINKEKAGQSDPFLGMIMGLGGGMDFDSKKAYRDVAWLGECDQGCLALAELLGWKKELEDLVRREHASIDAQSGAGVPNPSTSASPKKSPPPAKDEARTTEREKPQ

SIRT1 = target: T2, SIRT1 (Homo sapiens, UniProt Q96EB6); assay: SIRT1 deacetylation reaction, recombinant protein; format: biochemical; conditions: deacetylase activity, SD always ≤10%
T2 sequence (Q96EB6 1-747): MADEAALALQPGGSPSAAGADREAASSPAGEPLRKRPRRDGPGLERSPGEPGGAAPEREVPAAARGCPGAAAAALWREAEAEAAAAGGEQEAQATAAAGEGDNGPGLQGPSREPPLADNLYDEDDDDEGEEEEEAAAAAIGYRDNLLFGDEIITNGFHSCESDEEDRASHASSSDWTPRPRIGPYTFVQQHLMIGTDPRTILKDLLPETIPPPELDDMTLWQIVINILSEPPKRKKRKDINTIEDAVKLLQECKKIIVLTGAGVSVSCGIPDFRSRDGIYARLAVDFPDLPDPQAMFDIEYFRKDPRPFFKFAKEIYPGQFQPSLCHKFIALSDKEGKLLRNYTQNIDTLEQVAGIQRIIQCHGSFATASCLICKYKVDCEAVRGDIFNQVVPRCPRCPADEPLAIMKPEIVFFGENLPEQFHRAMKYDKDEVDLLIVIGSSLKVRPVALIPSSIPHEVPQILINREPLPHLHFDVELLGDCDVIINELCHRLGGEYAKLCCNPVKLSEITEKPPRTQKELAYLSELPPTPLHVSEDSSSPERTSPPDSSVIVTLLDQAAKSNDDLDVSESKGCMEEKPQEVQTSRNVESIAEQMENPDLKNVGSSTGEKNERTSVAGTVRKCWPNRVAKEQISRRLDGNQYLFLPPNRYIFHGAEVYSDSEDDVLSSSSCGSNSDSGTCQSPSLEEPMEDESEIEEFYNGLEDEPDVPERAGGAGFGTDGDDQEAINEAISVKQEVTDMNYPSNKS
Description: (§1) Next, the selectivity of the compounds for SIRT2 against other sirtuins was also determined. The compounds were tested at the final concentration of 150 µM in the deacetylation reaction of SIRT1, SIRT3 and SIRT6, with this last one being promoted by the addition of the SIRT6 activator MDL-800 and also in the depalmitoylation reaction of SIRT6.

SIRT3 = target: T3, SIRT3 (Homo sapiens, UniProt Q9NTG7); assay: SIRT3 deacetylation reaction, recombinant protein; format: biochemical; conditions: deacetylase activity, SD always ≤10%
T3 sequence (Q9NTG7 1-399): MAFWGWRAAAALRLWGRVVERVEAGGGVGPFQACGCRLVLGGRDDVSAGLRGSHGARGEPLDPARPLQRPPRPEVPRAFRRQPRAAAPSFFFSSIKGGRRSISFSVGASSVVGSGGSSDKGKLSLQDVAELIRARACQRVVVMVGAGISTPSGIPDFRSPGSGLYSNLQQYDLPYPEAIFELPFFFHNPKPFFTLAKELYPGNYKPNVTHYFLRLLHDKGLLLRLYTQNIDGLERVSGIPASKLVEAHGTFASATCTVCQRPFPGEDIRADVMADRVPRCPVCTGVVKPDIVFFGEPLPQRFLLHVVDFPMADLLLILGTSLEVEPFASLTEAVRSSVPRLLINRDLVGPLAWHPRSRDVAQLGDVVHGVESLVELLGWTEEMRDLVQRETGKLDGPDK
Description: as §1

SIRT6 [3] = target: T4, SIRT6 (Homo sapiens, UniProt Q8N6T7); assay: SIRT6 deacetylation reaction promoted by the SIRT6 activator MDL-800, recombinant protein; format: biochemical; conditions: with SIRT6 activator MDL-800, SD always ≤10%; for inhibition at 150 µM: read-out: % Inhibition SIRT6 (Deacetylase); for % Inhibition SIRT6 (Deacetylase): 150 µM
T4 sequence (Q8N6T7 whole entry, species assumed): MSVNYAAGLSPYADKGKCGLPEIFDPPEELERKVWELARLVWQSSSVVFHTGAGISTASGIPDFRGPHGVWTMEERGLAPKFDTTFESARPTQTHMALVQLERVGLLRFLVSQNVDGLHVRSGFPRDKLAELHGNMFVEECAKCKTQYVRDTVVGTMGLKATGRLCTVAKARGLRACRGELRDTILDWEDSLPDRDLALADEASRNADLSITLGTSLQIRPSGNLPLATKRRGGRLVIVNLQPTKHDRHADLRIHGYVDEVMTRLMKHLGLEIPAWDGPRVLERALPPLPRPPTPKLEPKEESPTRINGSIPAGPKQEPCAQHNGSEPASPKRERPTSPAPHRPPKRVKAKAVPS
Description: as §1

SIRT6 [4] = target: T4, SIRT6; assay: SIRT6 depalmitoylation reaction (H3K9Palm), recombinant protein; format: biochemical; conditions: 150 µM, SD always ≤10%
Description: as §1

SIRT2 [5] = target: T1, SIRT2; assay: SIRT2 deacetylase activity, recombinant SIRT2 with acetylated peptide H3K9Ac and NAD+; conditions: for inhibition at 150 µM: read-out: % Inhibition SIRT2 (at 150 μM)
Description: The effect of urea derivatives on SIRT2 deacetylase activity was evaluated upon incubation of recombinant SIRT2 with an acetylated peptide (H3K9Ac, a peptide acetylated on Lys 9) and the co-substrate NAD^+.

[6] = Table S1, ref [2] Schiedel et al., J. Med. Chem. 2016, read-out: IC50 of SIRT2 inhibition (Table S1)
[7] = Table S2, SIRT2 inhibition of SirReal2 analogues, read-out: IC50 (Table S2)
[8] = SirReal2 analogs, read-out: SIRT2 IC50

SMILES: N#C/C(=C\c1ccc(-c2cc(Cl)ccc2Cl)o1)C(=O)Nc1cccc2ncccc12 [AGK2, reference compound]
level of α-tubulin acetylation vs control cells [1]: increased levels of alpha-tubulin acetylation

SMILES: CC(Br)C(=O)c1ccc(Br)cc1 (centres unmarked) [Compound 1]
IC50 (SIRT2 [2]; read-out: IC50 (Table S2), Table S2, SIRT2 inhibition of SirReal2 analogues): 3.75 µM
IC50 (SIRT2 [2]; read-out: IC50 of SIRT2 inhibition (Table S1), Table S1, ref [2] Schiedel et al., J. Med. Chem. 2016): 3.8 µM

SMILES: Cc1sc(N)nc1-c1ccc(Br)cc1 [Compound 2]
IC50 (SIRT2 [2]; [6]): 16.8 µM

inhibition at 150 µM (SIRT1): 86%
inhibition at 150 µM (SIRT3): 6%
inhibition at 150 µM (SIRT6 [3]): 42%
% Inhibition SIRT6 (Depalmiotoylase) (SIRT6 [4]): ni
IC50 (SIRT2 [5]): 37 ± 2 µM
inhibition at 150 µM (SIRT2 [5]): 100 ± 5%
SMILES: CC(=O)c1cccc(NC(=O)Nc2nc(-c3ccc(Br)cc3)c(C)s2)c1 [Compound 3a, 1-(3-acetylphenyl)-3-(4-(4-bromophenyl)-5-methylthiazol-2-yl)urea]

inhibition at 150 µM (SIRT1): 98%
inhibition at 150 µM (SIRT3): 14%
% Inhibition SIRT6 (Deacetylase) (SIRT6 [3]): ni
% Inhibition SIRT6 (Depalmiotoylase) (SIRT6 [4]): ni
inhibition at 150 µM (SIRT2 [5]): 93 ± 4%
SMILES: COc1cccc(NC(=O)Nc2nc(-c3ccc(Br)cc3)c(C)s2)c1 [Compound 3b, 1-(4-(4-bromophenyl)-5-methylthiazol-2-yl)-3-(3-methoxyphenyl)urea]

inhibition at 150 µM (SIRT1): 100%
inhibition at 150 µM (SIRT3): 20%
inhibition at 150 µM (SIRT6 [3]): 7%
% Inhibition SIRT6 (Depalmiotoylase) (SIRT6 [4]): ni
IC50 (SIRT2 [5]): 26 ± 4 µM
inhibition at 150 µM (SIRT2 [5]): 96 ± 6%
SMILES: CSc1cccc(NC(=O)Nc2nc(-c3ccc(Br)cc3)c(C)s2)c1 [Compound 3c, 1-(4-(4-bromophenyl)-5-methylthiazol-2-yl)-3-(3-(methylthio)phenyl)urea]

inhibition at 150 µM (SIRT1): 99%
inhibition at 150 µM (SIRT3): 23%
inhibition at 150 µM (SIRT6 [3]): 15%
% Inhibition SIRT6 (Depalmiotoylase) (SIRT6 [4]): ni
IC50 (SIRT2 [5]): 108 ± 4 µM
inhibition at 150 µM (SIRT2 [5]): 100 ± 4%
SMILES: Cc1sc(NC(=O)NCc2ccccc2)nc1-c1ccc(Br)cc1 [Compound 3d, 1-benzyl-3-(4-(4-bromophenyl)-5-methylthiazol-2-yl)urea]

SMILES: CCOC(=O)c1sc(N)nc1-c1ccc(Br)cc1 [Compound 4]
IC50 (SIRT2 [2]; [6]): 3.4 µM

SMILES: CCOc1cccc(Cc2cnc(NC(=O)CSc3nc(C)cc(C)n3)s2)c1 [Compound 5]
IC50 (SIRT2 [2]; [6]): 1.3 µM
IC50 (SIRT2 [2]; [7]): 1.33 µM

inhibition at 150 µM (SIRT1): 92%
inhibition at 150 µM (SIRT3): 24%
% Inhibition SIRT6 (Deacetylase) (SIRT6 [3]): ni
% Inhibition SIRT6 (Depalmiotoylase) (SIRT6 [4]): ni
inhibition at 150 µM (SIRT2 [5]): 93 ± 4%
SMILES: CCOC(=O)c1sc(NC(=O)NCc2ccccc2)nc1-c1ccc(Br)cc1 [Compound 5d, Ethyl 2-(3-benzylureido)-4-(4-bromophenyl)thiazole-5-carboxylate]

SMILES: Cc1cc(C)nc(SCC(=O)Nc2ncc(Cc3ccc(-c4ccccc4)cc3)s2)n1 [Compound 6]
IC50 (SIRT2 [2]; [6]): 164 µM

SMILES: O=C(CSc1cccc(O)c1)Nc1ncc(Cc2cccc3ccccc23)s1 [Compound 7]
IC50 (SIRT2 [2]; [8]): 143 to 207 µM
IC50 (SIRT2 [2]; [6]): 143 µM

SMILES: Cc1cc(C)cc(SCC(=O)Nc2ncc(Cc3cccc4ccccc34)s2)c1 [Compound 8]
IC50 (SIRT2 [2]; [8]): 143 to 207 µM
IC50 (SIRT2 [2]; [6]): 207 µM

SMILES: Cc1cc(C)nc(SCC(=O)Nc2ncc(C(=O)Nc3cccc4ccccc34)s2)n1 [Compound 9]
IC50 (SIRT2 [2]; [6]): 33 µM

SMILES: Cc1cc(C)nc(SCC(=O)Nc2ncc(Cc3cccc4ccc(Cl)cc34)s2)n1 [Compound 10]
IC50 (SIRT2 [2]; [6]): 0.2 µM
IC50 (SIRT2 [2]; [7]): 0.18 µM

SMILES: Cc1cc(C)nc(SC(C)C(=O)Nc2ncc(Cc3cccc4ccccc34)s2)n1 (centres unmarked) [Compound 11]
IC50 (SIRT2 [2]; [6]): 9.8 µM
IC50 (SIRT2 [2]; [7]): 9.77 µM

SMILES: Cc1cc(C)nc(SC(C)C(=O)Nc2ncc(Cc3cccc4ccccc34)s2)n1 (centres unmarked) [Compound 12]
IC50 (SIRT2 [2]; [6]): 0.3 µM
IC50 (SIRT2 [2]; [7]): 0.26 µM

SMILES: Cc1cc(C)nc(SCC(=O)Nc2ncc(Cc3c(C)ccc4ccccc34)s2)n1 [Compound 13]
IC50 (SIRT2 [2]; [6]): 0.3 µM
IC50 (SIRT2 [2]; [7]): 0.31 µM

SMILES: Cc1cc(C)nc(SCC(=O)Nc2ncc(Cc3cccc4ccc(Br)cc34)s2)n1 [Compound 14]
IC50 (SIRT2 [2]; [8]): 0.21 µM
IC50 (SIRT2 [2]; [6]): 0.2 µM

SMILES: O=C(CSc1ncccn1)Nc1ncc(Cc2cccc3ccccc23)s1 [Compound 16]
IC50 (SIRT2 [2]; [6]): 2.3 µM
IC50 (SIRT2 [2]; [7]): 2.34 µM

SMILES: CCc1cc(CC)nc(SCC(=O)Nc2ncc(Cc3cccc4ccccc34)s2)n1 [Compound 17]
IC50 (SIRT2 [2]; [6]): 45.6 µM

SMILES: Cc1nc(SCC(=O)Nc2ncc(Cc3cccc4ccccc34)s2)nc(C)c1C [Compound 18]
IC50 (SIRT2 [2]; [6]): 15 µM
IC50 (SIRT2 [2]; [7]): 15 µM

SMILES: CCCc1cc(O)nc(SCC(=O)Nc2ncc(Cc3cccc4ccccc34)s2)n1 [Compound 20]
IC50 (SIRT2 [2]; [6]): 127 µM
IC50 (SIRT2 [2]; [7]): 127 µM

SMILES: Cc1cc(C)nc(SCC(=O)Nc2nnc(C(F)(F)F)s2)n1 [Compound 21]
IC50 (SIRT2 [2]; [8]): 503 µM

SMILES: Cc1cc(C)nc(SCC(=O)Nc2nnc(Cc3ccc(Cl)cc3)s2)n1 [Compound 22]
IC50 (SIRT2 [2]; [6]): 30.9 µM

SMILES: Cc1cc(C)nc(SCC(=O)Nc2nnc(Cc3ccc(Br)cc3)s2)n1 [Compound 23]
IC50 (SIRT2 [2]; [6]): 168 µM

SMILES: Cc1cc(C)nc(SCC(=O)Nc2nnc(Cc3cccc4ccccc34)s2)n1 [Compound 24]
IC50 (SIRT2 [2]; [6]): 1.9 µM
IC50 (SIRT2 [2]; [7]): 1.89 µM

SMILES: CCOc1ccc2nc(NC(=O)CSc3nc(C)cc(C)n3)sc2c1 [Compound 25]
IC50 (SIRT2 [2]; [6]): 207 µM
IC50 (SIRT2 [2]; [7]): 207 µM
